Laboratory results: patent US20260076983A1, “CANNABINOIDS COMPOSITIONS WITH POLYUNSATURATED FATTY ACID MONOGLYCERIDES AS A SPECIFIC COX-2 INHIBITOR, METHODS AND USES THEREOF” (SCF PHARMA INC., priority 2022, published 2026)

Molecular target: T1, COX-2 enzyme (Homo sapiens, UniProt P35354)
T1 construct: PGE2 levels in lipopolysaccharide (LPS)-challenged human whole blood; from tissue; host or cells: human whole blood (heparin tube) from one volunteer, LPS-challenged ex vivo
T1 sequence (P35354 18-604): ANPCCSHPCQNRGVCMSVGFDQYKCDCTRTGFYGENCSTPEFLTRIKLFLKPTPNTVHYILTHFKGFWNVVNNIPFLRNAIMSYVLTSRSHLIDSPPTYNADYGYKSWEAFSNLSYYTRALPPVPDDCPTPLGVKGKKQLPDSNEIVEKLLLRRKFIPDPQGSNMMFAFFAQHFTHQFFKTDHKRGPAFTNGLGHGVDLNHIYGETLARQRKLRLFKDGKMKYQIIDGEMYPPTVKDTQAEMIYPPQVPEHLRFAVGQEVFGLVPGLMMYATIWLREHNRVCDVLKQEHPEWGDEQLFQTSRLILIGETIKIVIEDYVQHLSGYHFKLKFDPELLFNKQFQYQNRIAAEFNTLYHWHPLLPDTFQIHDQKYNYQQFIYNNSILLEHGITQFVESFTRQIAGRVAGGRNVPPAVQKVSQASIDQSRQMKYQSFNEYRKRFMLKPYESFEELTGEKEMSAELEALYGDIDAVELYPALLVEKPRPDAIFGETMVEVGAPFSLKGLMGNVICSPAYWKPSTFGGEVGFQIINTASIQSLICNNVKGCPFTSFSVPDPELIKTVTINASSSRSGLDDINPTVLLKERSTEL
Experiment: PGE2 levels in LPS-challenged human whole blood after oral capsules (human case study)
Assay type: in vivo
Details: cross-over, blood 3.5 h after dosing
Protocol: 200 mg of cannabidiol (CBD) dissolved in 2.0 g of MCT oil, 2.0 g of compound of formula (IV) alone and 200 mg of cannabidiol (CBD) dissolved in 2.0 g of compound of formula (IV) were separately encapsulated in four (4) hard gel capsules (size 00) for a cross over COX-2 case study. A pilot cross-over case study was conducted in one volunteer over a three (3) week periods with one experiment per week. In the morning of the experiment, 10 ml of blood was collected in heparin tube from the volunteer fasted for 10 h. The four (4) hard gel capsules were swallowed with a glass of water and blood collection was repeated after 3.5 h. PGE2 levels in lipopolysaccharide (LPS)-challenged human whole blood was measured as biochemical index for cyclooxygenase COX-2 activity (Brideau C, Kargman S, Liu S, Dallob A L, Ehrich E W, Rodger I W, Chan C C. A human whole blood assay for clinical evaluation of biochemical efficacy of cyclooxygenase inhibitors. Inflamm Res. 1996 February; 45(2):68-74. doi: 10.1007/BF02265118. PMID: 8907587).
100 mg of cannabidiol (CBD) dissolved in 2.0 g of compound of formula (IV) was encapsulated in four (4) hard gel capsules (size 00) for COX-1 and COX-2 case study. A pilot case study was conducted in one volunteer. In the morning of the case study, 20 ml of blood was collected (1×10 ml serum tube and 1×10 ml heparin tube) from the volunteer fasted for 10 h. […]

CC/C=C\C/C=C\C/C=C\C/C=C\C/C=C\CCCC(=O)OCC(O)CO (centres unmarked) [compound of formula (IV)]
inhibition of the COX-2 enzyme (Example 1, one volunteer, oral hard gel capsules, 200 mg CBD in 2.0 g MCT oil, 2.0 g compound of formula (IV) alone, 200 mg CBD in 2.0 g compound of formula (IV)): 10% | inhibition of the COX-2 enzyme (in words) (Example 3, one volunteer, 2.0 g compound of formula (IV), oral capsules): mild inhibition
